We go through one compound from US20170165236A1, “SELECTIVE SPHINGOSINE 1 PHOSPHATE RECEPTOR MODULATORS AND COMBINATION THERAPY THEREWITH” (Celgene International II Sàrl, priority 2013, published 2017).

The target of one series is S1P1/EDG1 (Homo sapiens, UniProt P21453). The experiment in a line: S1P1 CRE-bla CHOK1 reporter assay, inhibition of Forskolin induced cAMP. Format: cell-based. The following applies: CRE-bla CHOK1 cells, with Forskolin; read-out: S1P1 agonist value (EC50). The procedure:
Generation of S1P1-Mediated Inhibition of cAMP Reporter Assay
S1P1/pcDNA3.1 was transfected into the CRE-bla CHO K1 (Invitrogen) cell line, and stable single cell clones were selected using standard techniques.
S1P1 CRE-Bla CHOK1 Reporter Assay—Characterization of S1P1 Agonists
Cells were seeded into 384-well black wall/clear bottom plates at 10^4 cells/well/19.5 μl assay media (DMEM-phenol free, 0.5% charcoal/dextran stripped serum, 2 mM glutamine, 0.1 mM NEAA, 1 mM Na-Pyruvate, 25 mM Hepes) and incubated for 18 hrs at 37° C. in 5% CO2. Dose response curves (10-point) were generated in 10 mM Hepes, 0.1% Pluronic F127, in the presence of Forskolin. Cells were treated with 0.5 μl compound in the presence of 2 μM Forskolin for 4 hrs at 37° C. The FRET-based β-lactamase fluorescent substrate (LiveBLAzer™-FRET B/G Loading Kit CC4-AM; Invitrogen) was prepared according to manufacturer's directions, and incubated with cells for 2 hrs at room temperature. […] Data was analyzed by non-linear regression to determine the EC50 for inhibition of Forskolin induced cAMP.
On the technique in general: In a reporter assay the amount or activity of a reporter protein is the signal.

Another series addresses T1, S1P2 (Homo sapiens, UniProt O95136).
T1 construct: expressed in transfected cells; host or cells: CRE-bla CHOK1
The experiment in a line: Specificity over other S1P receptors: S1P2 CRE-bla CHOK1. It is filed as cell-based. The following applies: S1P2 CRE-bla CHOK1, without Forskolin; read-out: S1P2 agonist value (EC50). The procedure:
(§1) Cells were seeded into 384-well black wall/clear bottom plates at 10^4 cells/well/19.5 μl assay media (DMEM-phenol free, 0.5% charcoal/dextran stripped serum, 2 mM glutamine, 0.1 mM NEAA, 1 mM Na-Pyruvate, 25 mM Hepes) and incubated for 18 hrs at 37° C. in 5% CO2. Dose response curves (10-point) were generated in 10 mM Hepes, 0.1% Pluronic F127, in the presence of Forskolin. Cells were treated with 0.5 μl compound in the presence of 2 μM Forskolin for 4 hrs at 37° C. The FRET-based β-lactamase fluorescent substrate (LiveBLAzer™-FRET B/G Loading Kit CC4-AM; Invitrogen) was prepared according to manufacturer's directions, and incubated with cells for 2 hrs at room temperature. Plates were read at Ex:410/Em:458 and Ex:410/Em:522, and the response ratio determined. Data was analyzed by non-linear regression to determine the EC50 for inhibition of Forskolin induced cAMP.
(§2) To assess compound specificity on other S1P receptors the following cell lines were used: S1P2 CRE-bla CHOK1, S1P3-Gα15 NFAT-bla HEK293T (Invitrogen), S1P4-bla TANGO U2OS (Invitrogen), S1P5-bla TANGO U2OS (Invitrogen). The same assay set up for S1P1 was used but without Forskolin. S1P4 and S1P5 assays were performed in FreeStyle Expression medium (Invitrogen). S1P5 cells were incubated for 48 hrs in prior to treatment with compound.

Another series deals with T2, S1P4 (Homo sapiens, UniProt O95977).
T2 construct: fused on or other part: Tango handle at the receptor's C-terminus: a TEV protease cleavage site and the Gal4-VP16 transcription factor, possibly a V2 vasopressin receptor tail; The cells also carry a beta-arrestin/TEV protease fusion and a UAS-beta-lactamase reporter
T2 sequence (O95977 1-384): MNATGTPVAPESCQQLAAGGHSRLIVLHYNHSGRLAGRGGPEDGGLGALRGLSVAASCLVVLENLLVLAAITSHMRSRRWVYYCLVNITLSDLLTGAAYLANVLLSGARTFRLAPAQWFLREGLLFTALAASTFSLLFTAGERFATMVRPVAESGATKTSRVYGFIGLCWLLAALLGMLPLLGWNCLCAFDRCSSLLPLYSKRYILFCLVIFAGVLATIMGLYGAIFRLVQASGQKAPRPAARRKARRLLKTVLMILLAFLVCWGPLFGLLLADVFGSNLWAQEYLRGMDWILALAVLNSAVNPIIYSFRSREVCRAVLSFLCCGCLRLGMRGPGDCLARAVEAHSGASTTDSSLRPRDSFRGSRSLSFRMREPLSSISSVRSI
In words: Specificity over other S1P receptors: S1P4-bla TANGO U2OS. The conditions noted are these: without Forskolin, read-out: S1P4 agonist value (EC50). Format: cell-based. The procedure:
as §1, §2

The target in a further series is T3, S1P5 (Homo sapiens, UniProt Q9H228).
T3 construct: fused on or other part: Tango handle at the receptor's C-terminus: a TEV protease cleavage site and the Gal4-VP16 transcription factor, possibly a V2 vasopressin receptor tail; The cells also carry a beta-arrestin/TEV protease fusion and a UAS-beta-lactamase reporter
T3 sequence (Q9H228 whole entry, the tested form may be a part): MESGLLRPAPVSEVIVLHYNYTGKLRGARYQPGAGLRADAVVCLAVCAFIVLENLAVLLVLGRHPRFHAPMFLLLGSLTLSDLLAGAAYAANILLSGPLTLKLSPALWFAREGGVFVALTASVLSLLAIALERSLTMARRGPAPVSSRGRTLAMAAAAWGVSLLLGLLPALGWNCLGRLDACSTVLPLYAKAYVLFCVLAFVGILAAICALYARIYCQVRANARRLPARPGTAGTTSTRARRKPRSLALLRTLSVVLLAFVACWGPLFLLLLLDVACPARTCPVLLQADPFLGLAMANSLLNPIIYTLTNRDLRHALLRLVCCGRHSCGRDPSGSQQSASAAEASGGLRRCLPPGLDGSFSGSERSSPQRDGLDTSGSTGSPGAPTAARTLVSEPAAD
The experiment in a line: Specificity over other S1P receptors: S1P5-bla TANGO U2OS. Format: cell-based. The conditions noted are these: without Forskolin, read-out: S1P5 agonist value (EC50). The procedure:
as §1, §2

The next series deals with peripheral T-cell counts. In words: Lymphopenia in rats, multiple dose. It is filed as in vivo. The conditions noted are these: 24 hours after final dose of a 3-5 day multiple dose regimen. The method, then:
In rats: Female rats (Simonsen Laboratories, Gilroy Calif.) were housed in an ALAAC accredited facility and the research was approved by the facilities Institutional Animal Care and Use Committee (IACUC). The animals were acclimated to the laboratory for at least 5 days prior to initiation of experiments. Rats (n=3/compound/time-point) were dosed by oral gavage with 1 mg/kg compound formulated in a vehicle consisting of 5% DMSO/5% Tween 20 and 90% 0.1N HCL. Control rats were dosed PO with the vehicle. Whole blood was collected from isoflurane anesthetized rats via the retro-orbital sinus and terminal samples were collected by cardiac puncture into EDTA. Whole blood was incubated with mouse anti-rat CD32 (BD #550271), PE-mouse anti-rat CD45R/B220 (BD #554881), PECy5-mouse anti-rat CD4 (BD #554839), and APC-mouse anti-rat CD8a (eBioscience #17-0084) for 30 minutes on ice. Red blood cells were lysed using BD Pharm Lyse Lysing buffer (#555899) and white blood cells were analyzed with a BD FACSArray. Lymphopenia was expressed as the % of white blood cells that were CD4 or CD8 positive T cells. […]
Prior to the conduct of toxicology studies, the effect of three to five daily doses of each compound on peripheral T-cell counts of female rats was determined (see lymphopenia measurements in rats above). […]

The nature of series [1]: Therapeutic index, 5 or 14 day toxicology studies in rats (lung to body weight). It is filed as in vivo, Sprague-Dawley rats. The procedure: All studies were conducted in non-fasted male and female Sprague-Dawely rats (Simonsen Laboratories). Rats were housed in an AAALAC accredited facility and the research was approved by the facilities Institutional Animal Care and Use Committee (IACUC). The animals were acclimated to the laboratory for at least 5 days prior to initiation of experiments.
The compounds listed in Table 6 were formulated as suspensions in a vehicle consisting of 0.5% carboxymethyl cellulose (Acros Organics) in purified water (pH adjusted to ˜2.2 with hydrochloric acid). The same formulation was used in the rat lymphopenia and toxicology studies described below. The concentration of each compound in suspension was verified to be within ±10% of the target concentration by HPLC-UV.
Prior to the conduct of toxicology studies, the effect of three to five daily doses of each compound on peripheral T-cell counts of female rats was determined (see lymphopenia measurements in rats above). In these lymphopenia studies, blood samples were collected onto EDTA at intervals after the final study dose. The collection times were not identical for each study; however, all studies included a sample collected 24 hours after the final dose. The lymphopenia data was used as a biomarker to select equally pharmacologically active doses for the subsequent toxicology study. […]

T1 sequence (O95136 whole entry, species assumed): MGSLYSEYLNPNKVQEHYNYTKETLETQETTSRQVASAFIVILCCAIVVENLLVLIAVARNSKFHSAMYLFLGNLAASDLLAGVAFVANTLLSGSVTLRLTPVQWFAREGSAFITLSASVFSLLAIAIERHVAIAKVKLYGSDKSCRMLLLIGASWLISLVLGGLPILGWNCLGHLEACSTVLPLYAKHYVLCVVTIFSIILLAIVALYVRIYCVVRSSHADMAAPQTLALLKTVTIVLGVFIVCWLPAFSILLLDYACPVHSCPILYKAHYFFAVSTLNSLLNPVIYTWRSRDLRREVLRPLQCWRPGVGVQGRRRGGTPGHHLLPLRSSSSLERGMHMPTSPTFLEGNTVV
S1P1/EDG1, sequence (P21453 whole entry): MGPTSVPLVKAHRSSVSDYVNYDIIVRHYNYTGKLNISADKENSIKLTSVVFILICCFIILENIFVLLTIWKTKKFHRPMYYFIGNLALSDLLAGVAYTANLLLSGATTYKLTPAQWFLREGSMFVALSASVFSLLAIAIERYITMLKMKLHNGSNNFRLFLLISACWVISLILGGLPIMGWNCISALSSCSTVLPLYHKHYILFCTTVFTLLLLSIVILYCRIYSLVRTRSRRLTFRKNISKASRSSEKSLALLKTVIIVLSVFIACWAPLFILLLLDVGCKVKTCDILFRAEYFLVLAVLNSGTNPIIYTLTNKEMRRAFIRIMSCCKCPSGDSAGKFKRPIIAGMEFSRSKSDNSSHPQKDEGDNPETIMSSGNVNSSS

With `CC(C)Oc1ccc(-c2nc(-c3cccc4c3CCC4NS(=O)(=O)CCO)no2)cc1C#N` (stereo in doubt) [Compound 186, (R)—N-(4-(5-(3-cyano-4-isopropoxyphenyl)-1,2,4-oxadiazol-3-yl)-2,3-dihydro-1H-inden-1-yl)-2-hydroxyethanesulfonamide], the concentration for a half-maximal effect (EC50) on S1P1/EDG1 turned out to be 0.05 nM; on S1P2, 1570 nM; on S1P4, 1210 nM; at S1P5 it was 32.3 nM. In addition, the “Dose Producing 50% lymphopenia” value in the series with peripheral T-cell counts was determined as 0.07 mg/kg. Besides, the “TI 5 days” value in series [1] (5 day toxicology study, dose for 10% lung weight increase / dose for 50% T-cell depletion) came to 16. For the same compound, in series [1] (oral, 5 or 14 consecutive days, interpolated from dose versus lung to body weight), the “Dose Resulting in 10% increase in lung weight” value is recorded as 1.1 mg/kg.

The term EC50 denotes the midpoint of the concentration-response curve.
